Test results published in US20220146526A1, “METHOD FOR EVALUATING SAMPLE, ANALYSIS METHOD, METHOD FOR DETECTING DEGRADED SAMPLE, MARKER FOR DETECTING DEGRADED BLOOD PLASMA SAMPLE, AND MARKER FOR DETECTING DEGRADED SERUM SAMPLE” (SHIMADZU CORPORATION, priority 2019, published 2022).
“And” between values parts separate entries of the source, which are not always exact repeats. Equal entries are not always repeated.

Columns and labels:
Assay type in all cases: physicochemical, human
[1] = GC/MS of blood plasma sample: time from blood collection to centrifugation (Table A); settings: for Rate of increase or decrease: detection intensity relative to 1 at 15 minutes; for Rate of increase or decrease / Increase or decrease: blood collection to centrifugation; for Increase or decrease: detection intensity; for Rate of increase or decrease (second value, decrease) / Rate of increase or decrease (first value, increase): different from individual to individual, relative to 1 at 15 minutes, collection to centrifugation; for Rate of increase or decrease (second value, decrease): individuals with decrease; for Rate of increase or decrease (first value, increase): individuals with increase
Outline: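 EDTA blood from a healthy subject was cooled at 4° C, centrifuged at 4° C, 3000 rpm, 15 minutes, and plasma was frozen. After methoxymation and trimethylsilylation, samples ran on GC/MS (BPX5 column, 60-330° C gradient, electron ionization, MRM). Intensity is relative to 15 minutes from collection to centrifugation.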

[2] = GC/MS of blood plasma sample: time from blood collection to cooling of blood (Table B); parameters: key to Rate of increase or decrease / Rate of increase or decrease (first value, increase): detection intensity relative to 1 at cooling time ≤1 min; settings: for Rate of increase or decrease: detection intensity relative to 1 at 1 minute or less, blood collection to cooling 5 minutes; for Increase or decrease: detection intensity, blood collection to cooling 5 minutes or more vs 1 minute or less; for Rate of increase or decrease (second value, decrease) / Rate of increase or decrease (first value, increase): different from individual to individual, relative to 1 at 1 minute or less, collection to cooling 5 minutes; for Rate of increase or decrease (second value, decrease): individuals with decrease; for Rate of increase or decrease (first value, increase): individuals with increase
Outline: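 Blood drawn at room temperature into EDTA tubes, mixed, then cooled at 4° C. within 1 minute or less versus 5 minutes or more before centrifugation (4° C., 3000 rpm, 15 minutes). Plasma was frozen, methoxymated and trimethylsilylated, and analysed by EI GC/MS in MRM mode. Values are detection intensity relative to the ≤1 minute condition.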

[3] = GC/MS of blood plasma sample: number of times of freezing and thawing (Table C); settings: for Increase or decrease: detection intensity, freezing and thawing 4 times vs 2 times; for Rate of increase or decrease (second value, decrease) / Rate of increase or decrease (first value, increase): different from individual to individual, relative to 1 at 2 times; for Rate of increase or decrease (second value, decrease): individuals with decrease; for Rate of increase or decrease (second value, decrease) / Rate of increase or decrease (first value, increase) / Rate of increase or decrease: freezing and thawing 4 times; for Rate of increase or decrease (first value, increase): individuals with increase; for Rate of increase or decrease: detection intensity relative to 1 at 2 times
Outline: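 EDTA plasma from a healthy subject, cooled within 1 min or after 5+ min, centrifuged 4 °C/3000 rpm/15 min, frozen, then freeze-thawed 2, 4, 6 or 10 times. Methoximated, trimethylsilylated samples run by GC/MS (BPX5 column, EI, MRM). Values are detection intensity relative to 2 freeze-thaw cycles set as 1.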

[4] = GC/MS of serum sample: time from blood collection to centrifugation (Table G); settings: for Rate of increase or decrease: detection intensity relative to 1 at 15 minutes; for Rate of increase or decrease / Increase or decrease: blood collection to centrifugation; for Increase or decrease: detection intensity; for Rate of increase or decrease (second value, decrease) / Rate of increase or decrease (first value, increase): different from individual to individual, relative to 1 at 15 minutes, collection to centrifugation; for Rate of increase or decrease (second value, decrease): individuals with decrease; for Rate of increase or decrease (first value, increase): individuals with increase
Outline: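 Blood was held for varying times before centrifugation (room temperature, 3500 rpm, 5 min); serum was frozen, then methoxymated and trimethylsilylated for GC/MS with electron ionization in MRM mode. Values are detection intensities relative to the 15-minute collection-to-centrifugation condition, set as 1.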

[5] = GC/MS of serum sample: time from centrifugation to isolation (Table H); parameters: key to Rate of increase or decrease / Rate of increase or decrease (first value, increase): detection intensity relative to 1 at 30 min centrifugation-to-isolation; settings: for Rate of increase or decrease: detection intensity relative to 1 at 30 minutes; for Increase or decrease: detection intensity
Outline: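 Blood was centrifuged at room temperature, 3500 rpm, 5 min, and the vessel left at room temperature for 30 min, 1 h or 6 h before serum isolation. Serum was methoxymated, trimethylsilylated and analysed by GC/MS with electron ionization in MRM mode; intensities expressed relative to the 30-min condition (=1).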

[6] = GC/MS of serum sample: number of times of freezing and thawing (Table I); parameters: key to Rate of increase or decrease / Rate of increase or decrease (first value, increase): detection intensity relative to 2 freeze-thaw cycles = 1; settings: for Rate of increase or decrease: detection intensity relative to 1 at 2 times; for Number of times when compound is affected: detection intensity changed by 30% or more vs 2 times of freezing and thawing
Outline: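 Serum was isolated after centrifugation at room temperature (3500 rpm, 5 min), frozen, and put through 2, 4, 6 or 10 freeze–thaw cycles. Samples were methoxymated and trimethylsilylated, then run by electron-ionization GC/MS in MRM mode on a BPX5 column (60 to 330 °C). Detection intensity is given relative to the 2-cycle sample, set as 1.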

[7] = 10 times of freezing and thawing
[8] = serum sample, GC/MS, detection intensity vs 2 times of freezing and thawing
[9] = serum, GC/MS, freezing and thawing 4 times
[10] = serum, GC/MS, freezing and thawing 6 times
[11] = detection intensity, serum, GC/MS, freezing and thawing 4 times vs 2 times
[12] = detection intensity, serum, GC/MS, freezing and thawing 6 times vs 2 times

Row | SMILES | Rate of increase or decrease ([1]; after 4 hours) | Increase or decrease ([1]; after 4 hours vs 15 minutes) | Rate of increase or decrease [2] | Increase or decrease [2] | Increase or decrease [3] | Rate of increase or decrease (second value, decrease) [3] | Rate of increase or decrease (first value, increase) [3] | Rate of increase or decrease ([4]; after 4 hours) | Increase or decrease ([4]; after 4 hours vs 15 minutes) | Rate of increase or decrease ([5]; after 1 hour) | Increase or decrease ([5]; after 1 hour vs 30 minutes) | Rate of increase or decrease [6, 7] | Number of times when compound is affected ([6]; serum sample, GC/MS) | Increase or decrease [6, 8] | Rate of increase or decrease (second value, decrease) ([1]; after 4 hours) | Rate of increase or decrease (first value, increase) ([1]; after 4 hours) | Rate of increase or decrease (second value, decrease) [2] | Increase or decrease ([4]; after 8 hours vs 15 minutes) | Rate of increase or decrease [6, 9] | Increase or decrease [6, 11] | also measured
1 | O=C(O)CCCCCCCC(=O)O [Azelaic acid] | 2.03 | Increase | 0.67 | Decrease | Different from individual | 0.66 | 1.45 | 0.51 | Decrease | 1.71 | Increase | 9.39 | 10 times | Increase | – | – | – | – | – | – | –
2 | OC[C@H]1O[C@@](CO)(O[C@H]2O[C@H](CO)[C@@H](O)[C@H](O)[C@H]2O)[C@@H](O)[C@@H]1O [Sucrose] | – | Different from individual | – | Different from individual | Decrease | – | – | 18.00 | Increase | 2.12 | Increase | 0.64 | 10 times | Decrease | 0.69 | 2.53 | 0.69 | – | – | – | Rate of increase or decrease (first value, increase) [2]: 2.20; Rate of increase or decrease [3]: 0.53
3 | O=C(CO)[C@H](O)[C@H](O)[C@H](O)CO [Psicose] | 4.33 | Increase | – | Different from individual | Different from individual | 0.70 | 1.77 | – | – | 0.57 | Decrease | – | – | – | – | – | 0.43 and 0.27 | Decrease | 0.54 | Decrease | Rate of increase or decrease (first value, increase) [2]: 3.24 and 1.94; Rate of increase or decrease ([4]; after 8 hours): 0.65; Rate of increase or decrease [6, 10]: 1.30; Increase or decrease [6, 12]: Increase
4 | N[C@@H](CS(=O)O)C(=O)O [3-Sulfinoalanine] | – | Different from individual | 0.61 | Decrease | Different from individual | 0.58 | 1.59 | 1.91 | Increase | 3.07 | Increase | – | – | – | 0.32 | 1.88 | – | – | 0.47 | Decrease | –
5 | OC[C@H]1O[C@@H](O[C@H]2[C@H](O)[C@@H](O)C(O)O[C@@H]2CO)[C@H](O)[C@@H](O)[C@H]1O (some centres unmarked) [Lactose] | – | – | 0.56 | Decrease | Increase | – | – | – | Different from individual | 2.37 | Increase | – | – | – | – | – | – | Different from individual | 1.60 | Increase | Rate of increase or decrease ([1]; after 12 hours): 0.70; Increase or decrease ([1]; after 12 hours vs 15 minutes): Decrease; Rate of increase or decrease [3]: 1.40; Rate of increase or decrease (second value, decrease) ([4]; after 4 hours): 0.62; Rate of increase or decrease (second value, decrease) ([4]; after 8 hours): 0.65; Rate of increase or decrease (first value, increase) ([4]; after 4 hours): 1.31; Rate of increase or decrease (first value, increase) ([4]; after 8 hours): 3.99; Rate of increase or decrease ([5]; after 6 hours): 1.43; Increase or decrease ([5]; after 6 hours vs 30 minutes): Increase; Rate of increase or decrease [6, 10]: 1.33; Increase or decrease [6, 12]: Increase
6 | O[C@@H]1[C@@H](O)[C@@H]2OC[C@@H](O2)[C@H]1O [1,6-Anhydroglucose] | 1.42 | Increase | 0.62 | Decrease | Different from individual | 0.42 | 3.49 | – | – | 2.25 | Increase | – | – | – | – | – | – | Decrease | 2.25 | Increase | Rate of increase or decrease ([4]; after 8 hours): 0.62
